This note sets out measurements from patent US12691070B2, “Cationic lipids and preparation method thereof” (RiboX Therapeutics HK Limited, priority 2023, dated 2026).

Series [1] can be described thus: LNP zeta potential (Zetasizer). As to conditions: LNP with cirRNA (SEQ ID NO: 1). The series is classed as physicochemical. As for the experimental part: (§1) Ionizable lipid, DSPC, Cholesterol and DMG-PEG 2000 were mixed at a molar ratio of 50:10:38.5:1.5 in absolute ethanol. Circular RNA and linear mRNA payloads were suspended in 25 mM Acetate Buffer (pH 4.5). To form LNPs, three volumes of luciferase encoding RNA, in the form of cirRNA (SEQ ID NO:1) and mRNA (SEQ ID NO:2) respectively, were mixed with one volume of lipids in ethanol solution by microfluidic mixing with the Nanoassemblr Ignite (Precision Nanosystems) at a flow rate of 12 ml/min. The molar ratio of ionizable lipid to ribonucleotide was 15 or 6. The final lipid concentration in solution ranged from 1.5 mM to 6 mM. After encapsulation, the particles were dialyzed twice against PBS.
(§2) The LNP size and polydispersity index (PDI), determined by dynamic light scattering (DLS), and zeta potential were measured by a Zetasizer machine (Malvern). RNA concentration and encapsulation efficacy were analyzed by the Quant-IT Ribogreen kit by calculating the percentage encapsulation at 100%−(RNA-LNPs/RNA-LNPs with Triton X-100).

In series [2] the test system is RAW 264.7 cells. Kind of series: In vitro expression of firefly-luciferase, RAW 264.7. Format: cell-based. As to conditions: cirRNA (SEQ ID NO: 1) LNPs; firefly-luciferase luminescence; RAW 264.7 cells. As for the experimental part: (§3) RAW 264.7 and Hep G2 cells were transfected with 100 ng/mL of RNA-LNPs encoding for firefly-luciferase. At 72 hours post transfection, the cells were washed and lysed. The luciferase expression was determined in the cell lysates with the luciferase assay reagent kit (Promega), according to the kit protocol, luciferase activity was measured by a luminometer.

Series [3] concerns RAW 264.7 cells. Put plainly: In vitro toxicity (CellTiter-Glo cell viability), RAW 264.7.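 Also: percent of untreated cells luminescence signal.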 Format: cell-based. As to conditions: cirRNA (SEQ ID NO: 1) LNPs; RAW 264.7 cells. As for the experimental part:
(§4) RAW 264.7 and Hep G2 cells were transfected with 1 μg/mL RNA-LNPs. At 72 hours post transfection, cell viability was determined with the CellTiter-Glo® reagent kit, according to the kit protocol, measured by a luminometer.
(§5) The cell viability was calculated according to the following formula: […]
(ATP-based viability assays read luminescence as a measure of living cells.)

For series [4], the system named is Hep G2 cells. Put plainly: In vitro expression of firefly-luciferase, Hep G2. As to conditions: cirRNA (SEQ ID NO: 1) LNPs; firefly-luciferase luminescence; Hep G2 cells. Format: cell-based. On the procedure: as §3
Series [5] deals with Hep G2 cells. Kind of series: In vitro toxicity (CellTiter-Glo cell viability), Hep G2.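 Also: percent of untreated cells luminescence signal.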 Format: cell-based. As to conditions: cirRNA (SEQ ID NO: 1) LNPs; Hep G2 cells. On the procedure:
as §4, §5

A short description of series [6]: RNA encapsulation efficacy by Quant-IT Ribogreen kit. As to conditions: LNP with cirRNA (SEQ ID NO: 1). Format: physicochemical. As for the experimental part: as §1, §2
Series [7] concerns BALB/C mice. Put plainly: In vivo expression, whole-body luminescence (IVIS). As to conditions: cirRNA (SEQ ID NO: 1) LNPs, BALB/C mice. As for the experimental part: 6-8 week old, female BALB/C mice were injected with 0.05 mg*kg-1 of RNA-LNPs encoding for firefly-luciferase by intravenous injection. At 6 hours post injection, animals were intraperitoneally injected with 15 mg/ml of Luciferin substrate and whole-body luminescence was determined by a bioluminescent in vivo imaging system (IVIS).

The nature of series [8]: LNP size and polydispersity index (PDI) by dynamic light scattering. The series is classed as physicochemical. As to conditions: LNP with cirRNA (SEQ ID NO: 1); for Size: in nm (unit assumed). As for the experimental part: as §1, §2

Structures are written as SMILES.

With `CCCCC/C=C\C/C=C\CCCCCCCCN(CCCCCC(=O)OCC(CCCCCCCC)CCCCCCCCCC)CCOC(=O)NCCN1CCN(C)CC1` (stereo not drawn) [Lipid 78, 2-octyldodecyl 6-((2-(((2-(4-methylpiperazin-1-yl)ethyl)carbamoyl)oxy)ethyl)((9Z,12Z)-octadeca-9,12-dien-1-yl)amino)hexanoate], the “Zeta (mV)” value in series [1] worked out at 9.83 mV. For the same compound, the “In vitro Expression RAW” value in series [2] was 7.80E+03. The “In vitro Viability RAW” value in series [3] is reported as 106%. The “In vitro Expression HepG2” value in series [4] came to 1.31E+05. Also, the “In vitro Viability HepG2” value in series [5] is given as 113%. Moreover, the “Encapsulation Efficiency %” value in series [6] came to 100%. Moreover, the “In vivo Expression (Whole Body)” value in series [7] is reported as 4.92E+05. Besides, in series [8], the PDI was found to be 0.0918 and the Size stood at 110.

As to `CCCCC/C=C\C/C=C\CCCCCCCCN(CCCCCC(=O)OCC(CCCCCCCC)CCCCCCCCCC)CCOC(=O)NCCN1CCOCC1` (stereo not drawn) [Lipid 79, 2-octyldodecyl 6-((2-(((2-morpholinoethyl)carbamoyl)oxy)ethyl)((9Z,12Z)-octadeca-9,12-dien-1-yl)amino)hexanoate], the “Zeta (mV)” value in series [1] is −2.908 mV. Also, the “In vitro Expression RAW” value in series [2] was found to be 4.60E+01. Besides, in series [3], the “In vitro Viability RAW” value is 104%. For the same compound, the “In vitro Expression HepG2” value in series [4] is on record as 3.94E+03. The “In vitro Viability HepG2” value in series [5] was 104%. The “Encapsulation Efficiency %” value in series [6] turned out to be 93%. For the same compound, the “In vivo Expression (Whole Body)” value in series [7] amounted to 4.70E+07. In addition, in series [8], the PDI worked out at 0.2181 and the Size is 99.18.

Take `CCCCC/C=C\C/C=C\CCCCCCCCN(CCCCCCCC/C=C\C/C=C\CCCCC)CCOC(=O)NCCN1CCCCC1` [Lipid 85]: the “Zeta (mV)” value in series [1] is reported as 4.031 mV. Besides, the “In vitro Expression RAW” value in series [2] is on record as 5.74E+05. The “In vitro Viability RAW” value in series [3] amounted to 105%. In series [4], the “In vitro Expression HepG2” value is reported as 2.85E+07. Besides, the “In vitro Viability HepG2” value in series [5] amounted to 78%. In series [6], the “Encapsulation Efficiency %” value is reported as 91%. Further, the “In vivo Expression (Whole Body)” value in series [7] was 1.96E+07. Moreover, in series [8], the PDI is reported as 0.1671 and the Size is recorded as 81.48.

In the case of `CCCCCCCOC(=O)CCCCCCCCCN(CCCCCCCCCC(=O)OCCCCCCC)CCOC(=O)NCCN1CCCC1` [Lipid 119, diheptyl 10,10′-((2-(((2-(pyrrolidin-1-yl)ethyl)carbamoyl)oxy)ethyl)azanediyl)bis(decanoate)], the “Zeta (mV)” value in series [1] is reported as 9.53 mV. For the same compound, the “In vitro Expression RAW” value in series [2] is recorded as 1.47E+04. Besides, the “In vitro Viability RAW” value in series [3] came out at 8%. In addition, the “In vitro Expression HepG2” value in series [4] amounted to 1.46E+03. In series [5], the “In vitro Viability HepG2” value is 17%. The “Encapsulation Efficiency %” value in series [6] is on record as 96%. In addition, the “In vivo Expression (Whole Body)” value in series [7] is 9.30E+05. In series [8], this compound returned a PDI of 0.064 and a Size of 142.1.

On to `CCCCCCCOC(=O)CCCCCCCCCN(CCCCCCCCCC(=O)OCCCCCCC)CCOC(=O)NCCN(C)C` [Lipid 120, heptyl 10-(10-(heptyloxy)-10-oxodecyl)-2-methyl-6-oxo-7-oxa-2,5,10-triazaicosan-20-oate], for which the “Zeta (mV)” value in series [1] is listed as 9.34 mV. The “In vitro Expression RAW” value in series [2] turned out to be 8.51E+03. Also, the “In vitro Viability RAW” value in series [3] is recorded as 81%. The “In vitro Expression HepG2” value in series [4] stood at 2.13E+03. In series [5], the “In vitro Viability HepG2” value is on record as 100%. Moreover, the “Encapsulation Efficiency %” value in series [6] was determined as 96%. In addition, in series [7], the “In vivo Expression (Whole Body)” value was 3.33E+05. In addition, in series [8], the PDI was 0.09314 and the Size turned out to be 143.8.

`CCCCCCCOC(=O)CCCCCCCCCN(CCCCCCCCCC(=O)OCCCCCCC)CCOC(=O)NCCCN(CC)CC` [Lipid 122, heptyl 3-ethyl-12-(10-(heptyloxy)-10-oxodecyl)-8-oxo-9-oxa-3,7,12-triazadocosan-22-oate]: the “Zeta (mV)” value in series [1] worked out at 10.84 mV. The “In vitro Expression RAW” value in series [2] worked out at 2.24E+04. The “In vitro Viability RAW” value in series [3] is reported as 8%. The “In vitro Expression HepG2” value in series [4] was determined as 2.48E+03. The “In vitro Viability HepG2” value in series [5] is on record as 17%. Further, in series [6], the “Encapsulation Efficiency %” value is recorded as 96%. In addition, the “In vivo Expression (Whole Body)” value in series [7] is listed as 1.43E+05. In series [8], this compound showed a PDI of 0.187 and a Size of 134.6.

Turning to `CCCCC/C=C\C/C=C\CCCCCCCCN(CCCCCCCC(=O)OC(CCCCCCCC)CCCCCCCC)CCOC(=O)NCCCN(C)C` [Lipid 130, heptadecan-9-yl 2-methyl-11-((9Z,12Z)-octadeca-9,12-dien-1-yl)-7-oxo-8-oxa-2,6,11-triazanonadecan-19-oate], the “Zeta (mV)” value in series [1] is listed as 11.37 mV. In series [2], the “In vitro Expression RAW” value stood at 6.92E+05. Moreover, in series [3], the “In vitro Viability RAW” value amounted to 90%. Besides, the “In vitro Expression HepG2” value in series [4] turned out to be 5.31E+06. Moreover, the “In vitro Viability HepG2” value in series [5] turned out to be 91%. The “Encapsulation Efficiency %” value in series [6] is on record as 99%. Further, the “In vivo Expression (Whole Body)” value in series [7] came out at 1.08E+07. In series [8], the PDI turned out to be 0.1685 and the Size turned out to be 145.8.

Take `CCCCC/C=C\C/C=C\CCCCCCCCN(CCCCCCCC(=O)OC(CCCCCCCC)CCCCCCCC)CCOC(=O)NCCCn1ccnc1` [Lipid 133, heptadecan-9-yl 8-((2-(((3-(1H-imidazol-1-yl)propyl)carbamoyl)oxy)ethyl)((9Z,12Z)-octadeca-9,12-dien-1-yl)amino)octanoate]: the “Zeta (mV)” value in series [1] was 2.957 mV. Also, in series [2], the “In vitro Expression RAW” value is 8.30E+04. In addition, in series [3], the “In vitro Viability RAW” value is reported as 27%. The “In vitro Expression HepG2” value in series [4] was determined as 4.26E+04. Also, the “In vitro Viability HepG2” value in series [5] is recorded as 13%. Also, the “Encapsulation Efficiency %” value in series [6] was determined as 95%. Besides, the “In vivo Expression (Whole Body)” value in series [7] is 2.04E+08. In series [8], this compound had a PDI of 0.0973 and a Size of 92.91.

With `CCCCC/C=C\C/C=C\CCCCCCCCN(CCCCCCCC(=O)OC(CCCCCCCC)CCCCCCCC)CCOC(=O)NCCN1CCOCC1` [Lipid 134, heptadecan-9-yl 8-((2-(((2-morpholinoethyl)carbamoyl)oxy)ethyl)((9Z,12Z)-octadeca-9,12-dien-1-yl)amino)octanoate], the “Zeta (mV)” value in series [1] is −8.698 mV. Besides, the “In vitro Expression RAW” value in series [2] is recorded as 5.25E+04. Further, the “In vitro Viability RAW” value in series [3] is on record as 84%. The “In vitro Expression HepG2” value in series [4] was 3.17E+04. Also, in series [5], the “In vitro Viability HepG2” value was found to be 13%. Besides, the “Encapsulation Efficiency %” value in series [6] worked out at 90%. Besides, in series [7], the “In vivo Expression (Whole Body)” value turned out to be 8.93E+05. In series [8], the PDI was found to be 0.043 and the Size is 89.71.

`CCCCC/C=C\C/C=C\CCCCCCCCN(CCCCCCCC(=O)OC(CCCCCCCC)CCCCCCCC)CCOC(=O)NCCN1CCN(C)CC1` [Lipid 135, heptadecan-9-yl 8-((2-(((2-(4-methylpiperazin-1-yl)ethyl)carbamoyl)oxy)ethyl)((9Z,12Z)-octadeca-9,12-dien-1-yl)amino)octanoate]: in series [1], the “Zeta (mV)” value was determined as 8.469 mV. Also, in series [2], the “In vitro Expression RAW” value came to 9.80E+04. For the same compound, the “In vitro Viability RAW” value in series [3] is 103%. The “In vitro Expression HepG2” value in series [4] is 2.30E+06. In addition, the “In vitro Viability HepG2” value in series [5] came to 91%. Besides, the “Encapsulation Efficiency %” value in series [6] stood at 100%. Also, the “In vivo Expression (Whole Body)” value in series [7] was 3.51E+07. In series [8], this compound gave a PDI of 0.1211 and a Size of 150.9.
